16 compounds from patent publication US11358971B2, “Prodrugs of modulators of the NMDA receptor” (H. Lundbeck A/S, priority 2019, dated 2022) can be followed below.

By Papp A→B is commonly meant the apparent permeability from the apical to the basolateral side of a cell layer.

The structures appear in SMILES notation.

Test system in the first data set: not listed separately
The data set can be described thus: In vivo exposure (plasma and brain) after intravenous bolus injection. The following applies: compound quantified 1c; dose 2 mg/kg intravenous bolus; male Sprague Dawley rats.
Experimental: Brain disposition of test compound was evaluated in male Sprague Dawley rats (standard body weight range). Briefly, discrete (nominal dose: 2 mg/kg, 2 ml/kg) or cassetted (nominal dose: 1 mg/kg/compound, 2 ml/kg) test compounds were administered by intravenous bolus injection (formulated in 10% hydroxypropyl-β-cyclodextrin or 10-20% Captisol, pH=3).
Serial blood samples were collected from a lateral tail vein at designated time points (n=3 per time point) then rats were put under deep isofluorane induced anaesthesia prior to removal of brains (n=3 per time point). Blood samples were stabilized against further metabolism ex vivo by addition of an esterase inhibitor (100 μM diisopropyl fluorophosphate). […]
Seven calibration standards and three QC samples were prepared in plasma and brain homogenate, respectively, in the concentration range 10-10000 ng/mL. […] Study samples with expected concentration above upper limit of quantification were diluted with blank matrix. […]
Samples were analyzed using an AB Sciex API4000 triple quadrupole (TQ) mass spectrometer operated in positive and negative electrospray ionization and MS/MS mode (multiple reaction monitoring, MRM). […] Quantification was performed by linear regression, 1/x2 weighting.
Concentrations of prodrug and drug in plasma and brain were quantified against matrix matched calibration standards.
Regarding `Cc1ccnc2cc(C(=O)NC[C@@H](N)C(=O)OC(C)C)sc12` [Compound 2f, Isopropyl (R)-2-amino-3-(7-methylthieno[3,2-b]pyridine-2-carboxamido)propanoate], the “Total Brain concentration (ng/mL) 30 min post dose” value is reported as “BLOQ”.

Still in this data set, the particulars now being: compound quantified 1h; dose 2 mg/kg intravenous bolus; male Sprague Dawley rats.
Take `COC(=O)[C@H](N)CNC(=O)c1cc2nccc(Br)c2s1` [Compound 2u, Methyl (R)-2-amino-3-(7-bromothieno[3,2-b]pyridine-2-carboxamido)propanoate]: the “Total Brain concentration (ng/mL) 30 min post dose” value is given as “BLOQ”.

A further data set concerns MDR1-MDCKII cells. The data set can be described thus: MDR1-MDCKII permeability assay Papp(AB). The following applies: parent compounds; 0.5 μM; A to B; 60-minute incubation at 37° C.; pH 7.4. The format is in vitro ADME. On the procedure: (§1) MDR1-MDCKII Permeability Assay Papp(AB)
(§2) MDR1-MDCKII cells (obtained from Piet Borst at the Netherlands Cancer Institute) were seeded onto […] (PET) in 96-well BD insert systems at 2.5×10^5 cells/mL until to 4-7 days for confluent cell monolayer formation.
(§3) Test compounds were diluted with the transport buffer (HBSS with 10 mM HEPES, added 1% BSA, pH 7.4) from DMSO stock solution to a concentration of 0.5 μM (DMSO: 0.4%) and applied to the apical or basolateral side of the cell monolayer. Permeation of the test compounds from A to B direction or B to A direction was determined in triplicate over a 60-minute incubation at 37° C. and 5% CO2 with a relative humidity of 95%. In addition, the efflux ratio of each compound was also determined. Test and reference compounds were quantified by LC/MS/MS analysis based on the peak area ratio of analyte/IS.
(§4) Reference compounds: Fenoterol (conc: 2 μM) was used as low permeability marker and Propranolol (conc: 2 μM) was used as high permeability marker in A to B Permeability, furthermore was bi-directional permeability of a P-glycoprotein substrate (digoxin) included.
(§5) The apparent permeability coefficient Papp (cm/s) was calculated using the equation: Papp=(dCr/dt)×Vr/(A×C0) (1) Where dCr/dt is the cumulative concentration of compound in the receiver chamber as a function of time (μM/s); Vr is the solution volume in the receiver chamber (0.05 mL on the apical side; 0.25 mL on the basolateral side); A is the surface area for the transport, i.e. 0.0804 cm^2 for the area of the monolayer; C0 is the initial concentration in the donor chamber (μM).
(§6) The efflux was calculated using the equation: Efflux ratio=Papp(BA)/Papp(AB) (2)
(§7) The mass balance (Recovery) was calculated. The mass balance is defined as: the sum of the compound recovered from the acceptor chamber and the compound remaining in the donor chamber at the end of the experiment, divided by the initial donor amount. The mass balance should be as high as possible. Criterion: Recovery <50% is insufficient.
(§8) To evaluate the integrity of the cell monolayer, Lucifer Yellow permeability was measured in one direction (A to B). The percentage of Lucifer Yellow was calculated in control wells as an estimation of the overall cell membrane integrity. The wells are considered fully acceptable if % Lucifer Yellow is less than 2%.
(§9) The experiments for the prodrugs were the same as for the parent compounds exemplified in Table 3a.
As to `N[C@H](CNC(=O)c1cc2nccc(C(F)F)c2s1)C(=O)O` [Compound 1a, (R)-2-amino-3-(7-(difluoromethyl)thieno[3,2-b]pyridine-2-carboxamido)propanoic acid], the “Permeability Papp (AB)” value is on record as “BLOQ”. For the compound `N[C@H](CNC(=O)c1cc2nccc(C3CC3)c2s1)C(=O)O` [Compound 1b, (R)-2-amino-3-(7-cyclopropylthieno[3,2-b]pyridine-2-carboxamido) propanoic acid], the “Permeability Papp (AB)” value is “BLOQ”.

Consider `Cc1ccnc2cc(C(=O)NC[C@@H](N)C(=O)O)sc12` [Compound 1c, (R)-2-amino-3-(7-methylthieno[3,2-b]pyridine-2-carboxamido)propanoic acid], for which the “Permeability Papp (AB)” value is given as “BLOQ”. Turning to `CCc1ccccc1-c1ccnc2cc(C(=O)NC[C@@H](N)C(=O)O)sc12` [Compound 1d, (R)-2-amino-3-(7-(2-ethylphenyl)thieno[3,2-b]pyridine-2-carboxamido)propanoic acid], the “Permeability Papp (AB)” value is listed as “BLOQ”. Take `COc1ccnc2cc(C(=O)NC[C@@H](N)C(=O)O)sc12` [Compound 1e, (R)-2-amino-3-(7-methoxythieno[3,2-b]pyridine-2-carboxamido)propanoic acid]: the “Permeability Papp (AB)” value is on record as “BLOQ”. In the case of `CC(C)Oc1ccnc2cc(C(=O)NC[C@@H](N)C(=O)O)sc12` [Compound 1g, (R)-2-amino-3-(7-isopropoxythieno[3,2-b]pyridine-2-carboxamido)propanoic acid], the “Permeability Papp (AB)” value is recorded as “BLOQ”.

Test system in another data set: not listed separately
Nature of the data set: MDR1-MDCKII permeability assay Papp(AB). The format is in vitro ADME. The note with it: dog, MDCK-MDR1, prodrug compounds, A to B, 60-minute incubation at 37° C., pH 7.4. As for the experimental part:
as §1, §2, §3, §4, §5, §6, §7, §8, §9
`Cc1ccnc2cc(C(=O)NC[C@@H](N)C(=O)OC(C)C)sc12` [Compound 2f, Isopropyl (R)-2-amino-3-(7-methylthieno[3,2-b]pyridine-2-carboxamido)propanoate]: the Papp A→B at 60 min, 0.5 µM was 18.4 ×10⁻⁶ cm/s. On the same count and under the same terms, the value for `CCc1ccccc1-c1ccnc2cc(C(=O)NC[C@@H](N)C(=O)OC)sc12` [Compound 2q, Methyl (R)-2-amino-3-(7-(2-ethylphenyl)thieno[3,2-b]pyridine-2-carboxamido)propanoate] was 1.97 ×10⁻⁶ cm/s; that for `COC(=O)[C@H](N)CNC(=O)c1cc2nccc(OC)c2s1` [Compound 2r, Methyl (R)-2-amino-3-(7-methoxythieno[3,2-b]pyridine-2-carboxamido)propanoate] was 5.54 ×10⁻⁶ cm/s.

Regarding `COC(=O)[C@H](N)CNC(=O)c1cc2nccc(C(F)(F)F)c2s1` [Compound 2s, Methyl (R)-2-amino-3-(7-(trifluoromethyl)thieno[3,2-b]pyridine-2-carboxamido)propanoate], the Papp A→B at 60 min, 0.5 µM stood at 12.3 ×10⁻⁶ cm/s.

On to `COC(=O)[C@H](N)CNC(=O)c1cc2nccc(OC(C)C)c2s1` [Compound 2t, Methyl (R)-2-amino-3-(7-isopropoxythieno[3,2-b]pyridine-2-carboxamido)propanoate], for which the Papp A→B at 60 min, 0.5 µM was 4.81 ×10⁻⁶ cm/s. The same measure, in the same setting: to `COC(=O)[C@H](N)CNC(=O)c1cc2nccc(CO)c2s1` [Compound 2v, Methyl (R)-2-amino-3-(7-(hydroxymethyl)thieno[3,2-b]pyridine-2-carboxamido) propanoate] belongs 1.16 ×10⁻⁶ cm/s; to `COC(=O)[C@H](N)CNC(=O)c1cc2nccc(CF)c2s1` [Compound 2w, Methyl (R)-2-amino-3-(7-(fluoromethyl)thieno[3,2-b]pyridine-2-carboxamido)propanoate], 4.19 ×10⁻⁶ cm/s; to `COC(=O)[C@H](N)CNC(=O)c1cc2ncc(F)c(C)c2s1` [Compound 2x, Methyl (R)-2-amino-3-(6-fluoro-7-methyl-thieno[3,2-b]pyridine-2-carboxamido)propanoate], 15.5 ×10⁻⁶ cm/s. Same read-out and setting: the value for `COC(=O)[C@H](N)CNC(=O)c1cc2ncc(C)c(C)c2s1` [Compound 2y, Methyl (R)-2-amino-3-(6,7-dimethylthieno[3,2-b]pyridine-2-carboxamido)propanoate] was 7.08 ×10⁻⁶ cm/s.
